Source: patent publication US12605451B2, “Targeted plasma protein degradation” (Novartis AG, priority 2020, dated 2026)
Where two headings read alike, the source gives them in different places. Blank lines part the entries; values can stand above or below the compound they belong to. Positions of bridges follow the written chain, without caps; N, C: chain ends. Non-standard residues stand in square brackets, D forms with d. Residues, ends and D or L forms follow the SMILES beside them. *: point of attachment. Bip = N[C@@H](Cc1ccc(-c2ccccc2)cc1)C(=O)O; Levulinoyl = CC(=O)CCC(=O)*; NMeA = CN[C@@H](C)C(=O)O

Legend:
human PCSK9 = biological target: T1, human PCSK9 (Homo sapiens, UniProt Q8NBP7); assay: SPR binding to biotinylated human PCSK9 (Proteon XPR36)
T1 construct: Purified recombinant full length human PCSK9 with C-terminal biotinylated Avitag
Procedure: SPR was used to obtain the binding data for PCSK9 receptor ligand compound (C5), either alone or as part of the bifunctional compounds (BFC1), respectively.
SPR Binding experiments were performed on a Proteon XPR36 instrument (Bio-Rad Laboratories). Purified recombinant full length human PCSK9 with C-terminal biotinylated Avitag was used for the assay. Biotinylated human PCSK9 was incubated with fivefold molar excess of bifunctional compound (BFC1) or compound (C5), and immobilized onto a Neutravidin coated sensor chip. (NLC chip, Bio-Rad Laboratories, Inc). After conditioning the chip by injecting running buffer (20 mM Tris pH7.5, 300 mM NaCl, 25 mM CaCl2, 2 mM betamercaptoethanol, 2% DMSO and 0.05% Tween-20) at a flow rate of 0.1 mL/min for 240 s, PCSK9 protein was injected at a protein concentration of 0.02 mg/ml in running buffer with fivefold molar excess of bifunctional compound and a flow rate of 0.03 mL/min followed by 4 washes with running buffer with 1 μM of bifunctional compound (0.1 mL/min for 60 seconds each).
To perform sandwich SPR binding assays, His-ASGPR1 (62-291) protein stocks were diluted with running buffer to a desired concentration. ASGPR was injected at a flow rate of 0.1 mL/min for 240 s and allowed to dissociate for 1200 s. Sensorgrams were recorded for association and dissociation phases. All sensorgrams were processed by subtracting the binding response recorded from a blank control surfaces (or interspot surfaces), followed by subtracting buffer blank injections from the reaction surface. Data were processed with the ProteOn Manager software (version 3.1.0.6, Bio-Rad, Inc.).

human ASGPR1 = biological target: T2, human ASGPR1 (Homo sapiens, UniProt P07306); assay: ASGPR1 SPR direct binding (Biacore, SA chip)
T2 construct: Recombinant extracellular domain of human ASGPR1 with N-terminal biotinylated Avitag
T2 sequence (P07306 62-291 limits assumed): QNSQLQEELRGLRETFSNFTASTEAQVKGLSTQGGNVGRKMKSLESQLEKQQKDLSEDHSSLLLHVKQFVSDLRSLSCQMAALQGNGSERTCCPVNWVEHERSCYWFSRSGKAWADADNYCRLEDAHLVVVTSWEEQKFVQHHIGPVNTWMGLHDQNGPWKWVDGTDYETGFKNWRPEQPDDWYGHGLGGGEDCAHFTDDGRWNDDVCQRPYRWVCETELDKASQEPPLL
Procedure: SPR was used to obtain the binding data for ASGP receptor ligand compound (int-CC2), either alone or as part of the bifunctional compounds (BFC-13), (BFC-15) and (BFC16).
(§1) ASGPR1 SPR experiments were performed on either Biacore T200 or Biacore 8K. The assay was optimized for Biacore (Streptavidin) SA chip in running buffer consisting of 20 mM HEPES, 300 mM NaCl, 2 mM CaCl2, 0.01% tween-20, 2% DMSO, pH 7.4. Recombinant extracellular domain of human ASGPR1 with N-terminal biotinylated Avitag was diluted to 20 μg/mL in running buffer, and immobilized onto SA chip after it was preconditioned with at least four 60-second injections at 30 uL/min of 1 M NaCl/40 mM NaOH solution. Protein immobilization level varied from 500 RU to 3500 RU dependent on analytes' molecular weight, for targeted Rmax of 30 RUs. Direct binding of analytes to ASGPR1 was observed when a dose response titration of analytes in 2% DMSO was flown over the immobilized protein. Data analysis was done on either Biacore T200 Evaluation Software or Biacore Insight Evaluation Software.
SPR was used to obtain the binding data for ASGP receptor ligand compounds (int-CC2), either alone or as part of the bifunctional compounds (BFC1).
as §1, with “Biacore” for “Biacore (Streptavidin)”

[1] = Free Ligand, SPR, read-out: PCSK9 KD

T1 sequence (Q8NBP7 153-692): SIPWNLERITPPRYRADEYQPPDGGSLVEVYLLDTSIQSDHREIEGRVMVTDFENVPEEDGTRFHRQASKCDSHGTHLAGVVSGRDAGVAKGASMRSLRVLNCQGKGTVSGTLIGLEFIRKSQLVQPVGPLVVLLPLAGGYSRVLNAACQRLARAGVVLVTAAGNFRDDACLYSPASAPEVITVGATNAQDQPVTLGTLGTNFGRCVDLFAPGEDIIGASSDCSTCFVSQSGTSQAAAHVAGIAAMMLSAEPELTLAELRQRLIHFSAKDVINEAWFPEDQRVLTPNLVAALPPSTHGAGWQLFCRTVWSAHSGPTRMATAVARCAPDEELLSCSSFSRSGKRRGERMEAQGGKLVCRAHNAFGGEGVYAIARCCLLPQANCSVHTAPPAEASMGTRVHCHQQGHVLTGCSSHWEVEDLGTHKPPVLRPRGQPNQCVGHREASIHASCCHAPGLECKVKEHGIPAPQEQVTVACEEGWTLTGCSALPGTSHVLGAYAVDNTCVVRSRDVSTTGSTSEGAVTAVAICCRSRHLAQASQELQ

Compound: CC(C)[C@@H]1NC(=O)[C@H](Cc2ccccc2)NC(=O)CSC[C@@H](C(=O)NCC(=O)N[C@@H](CCCCNC(=O)OC[C@@H]2[C@@H]3CCc4c(nnn4CCCCCCO[C@H](O[C@@H](/C=N/OCC(=O)NNC(=O)CCCO[C@@H]4O[C@H](CO[C@H]5O[C@H](CO[C@H]6O[C@H](CO)[C@@H](O)[C@H](O)[C@@H]6O[C@H]6O[C@H](COP(=O)(O)O)[C@@H](O)[C@H](O)[C@@H]6O)[C@@H](O)[C@H](O)[C@@H]5O)[C@@H](O)[C@H](O[C@H]5O[C@H](CO)[C@@H](O)[C@H](O)[C@@H]5O[C@H]5O[C@H](COP(=O)(O)O)[C@@H](O)[C@H](O)[C@@H]5O)[C@@H]4O)CO)[C@H](O)/C=N\OCC(=O)NNC(=O)CCCO[C@@H]4O[C@H](CO[C@H]5O[C@H](CO[C@H]6O[C@H](CO)[C@@H](O)[C@H](O)[C@@H]6O[C@H]6O[C@H](COP(=O)(O)O)[C@@H](O)[C@H](O)[C@@H]6O)[C@@H](O)[C@H](O)[C@@H]5O)[C@@H](O)[C@H](O[C@H]5O[C@H](CO)[C@@H](O)[C@H](O)[C@@H]5O[C@H]5O[C@H](COP(=O)(O)O)[C@@H](O)[C@H](O)[C@@H]5O)[C@@H]4O)CC[C@@H]32)C(N)=O)NC(=O)[C@@H]2CCCN2C(=O)[C@H](C)NC(=O)[C@H](CCC(=O)O)NC(=O)[C@H](C)N(C)C(=O)[C@H](Cc2ccc(-c3ccccc3)cc2)NC(=O)[C@H](C)N(C)C(=O)[C@H](Cc2ccc(-c3ccccc3)cc2)NC(=O)[C@H]([C@@H](C)O)NC(=O)[C@H]([C@@H](C)O)NC(=O)[C@@H]2CCCN2C1=O [BFC-3]
Kd (human PCSK9): 7.7 nM

Kd (human ASGPR1; Bifunctional Compound (PCSK9 series), Table 9, read-out: ASGPR binding KD): 22 nM
Compound: COC[C@@H]1NC(=O)[C@H](CCCNC(=O)CCOCCOCCOCCOCCC(=O)NCCOCc2cn(CCOCCOCCOCCOC[C@@]34CO[C@@H](O3)[C@H](NC(C)=O)[C@@H](O)[C@H]4O)nn2)N(Cc2ccc(Cl)cc2Oc2ccc(-c3cnc(CN(C)C)n3C)cc2)C(=O)C[C@@H](Cc2ccccc2)C(=O)N(C)[C@H]2CCCC[C@@H]2NC(=O)C[C@H](Cc2ccc(Cl)cc2)N(C)C1=O [BFC-12]

Kd (human PCSK9; [1]): 1.2 nM
Compound: CC(=O)CCC(=O)NCCCC[C@H](NC(=O)CNC(=O)[C@@H]1CSCC(=O)N[C@@H](Cc2ccccc2)C(=O)N[C@@H](C(C)C)C(=O)N2CCC[C@H]2C(=O)N[C@@H]([C@@H](C)O)C(=O)N[C@@H]([C@@H](C)O)C(=O)N[C@@H](Cc2ccc(-c3ccccc3)cc2)C(=O)N(C)[C@@H](C)C(=O)N[C@@H](Cc2ccc(-c3ccccc3)cc2)C(=O)N(C)[C@@H](C)C(=O)N[C@@H](CCC(=O)O)C(=O)N[C@@H](C)C(=O)N2CCC[C@H]2C(=O)N1)C(N)=O [C5] ({CH2CO}-FVPTT[Bip][NMeA][Bip][NMeA]EAPCGK(Levulinoyl)-NH2; thioether N-13)

Kd (human PCSK9; [1]): < 1 nM
Compound: COC[C@@H]1NC(=O)[C@H](CCCN)N(Cc2ccc(Cl)cc2Oc2ccc(-c3cnc(CN(C)C)n3C)cc2)C(=O)C[C@@H](Cc2ccccc2)C(=O)N(C)[C@H]2CCCC[C@@H]2NC(=O)C[C@H](Cc2ccc(Cl)cc2)N(C)C1=O [C9, (4S,7S,10S,14R,16aS,20aS)-10-(3-aminopropyl)-14-benzyl-11-(4-chloro-2-(4-(2-((dimethylamino)methyl)-1-methyl-1H-imidazol-5-yl)phenoxy)benzyl)-4-(4-chlorobenzyl)-7-(methoxymethyl)-5,16-dimethylhexadecahydrobenzo[1][1,4,7,11,14]pentaazacyclooctadecine-2,6,9,12,15 (3H)-pentaone]

Kd (human ASGPR1; Free Ligand, Table 7, read-out: ASGPR KD): 0.9 nM
Compound: CC(=O)N[C@H]1[C@H](OCCCCC(=O)NCCCNC(=O)CCOCC(N)(COCCC(=O)NCCCNC(=O)CCCCOC2O[C@H](CO)[C@H](O)[C@H](O)[C@H]2NC(C)=O)COCCC(=O)NCCCNC(=O)CCCCO[C@@H]2O[C@H](CO)[C@H](O)[C@H](O)[C@H]2NC(C)=O)O[C@H](CO)[C@H](O)[C@@H]1O (stereo partly drawn) [int-CC2, N,N′-(10-((3-((3-(5-(((3R,4R,5R,6R)-3-acetamido-4,5-dihydroxy-6-(hydroxymethyl)tetrahydro-2H-pyran-2-yl)oxy)pentanamido)propyl)amino)-3-oxopropoxy)methyl)-10-amino-5,15-dioxo-8,12-dioxa-4,16-diazanonadecane-1,19-diyl)bis(5-(((2R,3R,4R,5R,6R)-3-acetamido-4,5-dihydroxy-6-(hydroxymethyl)tetrahydro-2H-pyran-2-yl)oxy)pentanamide)]
